Test results from patent US8722661B2, “Pyrrolopyrimidone and pyrrolopyridone inhibitors of tankyrase” (Genentech, Inc., priority 2012, dated 2014).

Experiments:
tankyrase 2 (His6-TNKS2) = biological target: T1, tankyrase 2 (His6-TNKS2) (Homo sapiens, UniProt Q9H2K2); assay: μHTS-TNKS-IWR2 TR-FRET binding assay with His6-TNKS2 in place of TNKS1; conditions: Table I
T1 construct: His6-tankyrase 2 (construct: 934-1166)
Description: (§1) μHTS-TNKS-IWR2TR-FRET Binding Assay
(§2) (10 μL/well in BD1536-well plate, a single point)
(§3) Alternatively, in place of His6-TNKS1 can use either His6-tankyrase 2 (construct: 934-1166) (His6-TNKS2) or His6-PARP1 (full length).
(§4) Biotin-IWR2: 10 mM Biotin-IWR2 stock in DMSO, stored at −20° C.
Positive control: 10 mM XAV 939 in DMSO, stored at −20° C.
(§5) Prepare Biotinylated IWR2 stock solution (3.33× stock) for TOTL and cpd wells: 200 nM Biotin-IWR2 in 5% DMSO/AB1b buffer
(§6) Prepare POSITIVE CONTROL well stock solution (3.33× stock): 200 nM XAV939 in 200 nM Biotin-IWR2/5% DMSO/AB1b buffer
(§7) (Alternatively, use TNKS2 or PARP1 stock solutions.)
(§8) Prepare Eu/APC stock solution (5× stock): 3.5 nM Eu-SA/50 nM APC-His6Ab in AB2 buffer
(§9) Add 25 μL/well 1.5% DMSO/AB1c buffer in each compound well to the compound concentration at 74 μM in 8.8% DMSO/AB1c buffer or in the 2 μL DMSO CONTROL wells (BLANK, TOTAL and POSITIVE wells) in the compound plate.
(§10) Transfer 3 μL/well above solution (solution 1,2,3) to an empty assay plate (BD1536-well plate) as follows:
(§11) Transfer 3 μL/well of the above diluted compound solutions or compound dilution buffer to the above assay plate.
(§12) Add 2 μL/well of 300 nM TNKS stock solution (4) to every well in the above assay plate.
(§13) Incubate the assay plate at 26° C. for 30 minutes.
(§14) Incubate the assay plate at 26° C. for 60 minutes.
(§15) Read the assay plate immediately at excitation wavelength of 330 nm and emission wavelength of […] in time resolved fluorescence mode.
(§16) Representative compound data for assays are listed below in Table I. Values are in uM.

[1] = biological target: T2, PARP1 (His6-PARP1, full length) (Homo sapiens, UniProt P09874); assay: μHTS-TNKS-IWR2 TR-FRET binding assay with His6-PARP1 in place of TNKS1; conditions: Table I
T2 construct: His6-PARP1 (full length)
Description: as §1, §2, §3, §4
Positive control: 10 mM […] in DMSO, stored at −20° C.
as §5, §6, §7, §8, §9, §10, §11, §12, §13, §14, §15, §16

Tankyrase 1 (TNKS1) = biological target: T3, Tankyrase 1 (TNKS1) (Homo sapiens, UniProt O95271); assay: μHTS-TNKS-IWR2 TR-FRET binding assay (TNKS1)
T3 construct: construct: 1088-1327, 1266M
Description: as §1, §2
Reagents and Stock Solutions
as §4
Assay buffer 1a (AB 1a) for TNKS dilution: 50 mM Tris, pH 7.4, 100 mM sodium chloride solution, 1 mM magnesium chloride solution, 1 mM DL-dithiothreitol solution, 0.2 mg/mL bovine serum albumin solution, 0.025% NP-40.
Assay buffer 1b (AB 1b) for Biotin-IWR2 dilution: 50 mM Tris, pH 7.4, 100 mM sodium chloride solution, 1 mM magnesium chloride solution, 1 mM DL-dithiothreitol solution, 0.2 mg/mL bovine serum albumin solution, 0.05% NP-40
Assay buffer 1c (AB 1c) for compound dilution: 50 mM Tris, pH 7.4, 100 mM sodium chloride solution, 1 mM magnesium chloride solution, 1 mM DL-dithiothreitol solution, 0.2 mg/mL bovine serum albumin solution
Assay buffer 2 (AB2) for Eu/APC: 50 mM Tris, pH 7.4, 100 mM sodium chloride solution, 1 mM magnesium chloride solution, 0.2 mg/mL bovine serum albumin solution
Reagent Stock Solution Preparation
Prepare BLANK well stock solution: 5% DMSO/AB1b buffer
Prepare TNKS1 stock solution (5× stock): 300 nM TNKS in AB1a buffer
as §10
TOTL and cpd wells: Solution 1 (Biotin-IWR2):
BLNK wells: Solution 2 (No Biotin-IWR2):
POSITIVE CONTROL wells: Solution 3 (Biotin-IWR2+XAV939)
as §11, §12
Centrifuge the assay plate at 2100 rpm for 2 minutes.
as §13, §14

T2 sequence (P09874 whole entry): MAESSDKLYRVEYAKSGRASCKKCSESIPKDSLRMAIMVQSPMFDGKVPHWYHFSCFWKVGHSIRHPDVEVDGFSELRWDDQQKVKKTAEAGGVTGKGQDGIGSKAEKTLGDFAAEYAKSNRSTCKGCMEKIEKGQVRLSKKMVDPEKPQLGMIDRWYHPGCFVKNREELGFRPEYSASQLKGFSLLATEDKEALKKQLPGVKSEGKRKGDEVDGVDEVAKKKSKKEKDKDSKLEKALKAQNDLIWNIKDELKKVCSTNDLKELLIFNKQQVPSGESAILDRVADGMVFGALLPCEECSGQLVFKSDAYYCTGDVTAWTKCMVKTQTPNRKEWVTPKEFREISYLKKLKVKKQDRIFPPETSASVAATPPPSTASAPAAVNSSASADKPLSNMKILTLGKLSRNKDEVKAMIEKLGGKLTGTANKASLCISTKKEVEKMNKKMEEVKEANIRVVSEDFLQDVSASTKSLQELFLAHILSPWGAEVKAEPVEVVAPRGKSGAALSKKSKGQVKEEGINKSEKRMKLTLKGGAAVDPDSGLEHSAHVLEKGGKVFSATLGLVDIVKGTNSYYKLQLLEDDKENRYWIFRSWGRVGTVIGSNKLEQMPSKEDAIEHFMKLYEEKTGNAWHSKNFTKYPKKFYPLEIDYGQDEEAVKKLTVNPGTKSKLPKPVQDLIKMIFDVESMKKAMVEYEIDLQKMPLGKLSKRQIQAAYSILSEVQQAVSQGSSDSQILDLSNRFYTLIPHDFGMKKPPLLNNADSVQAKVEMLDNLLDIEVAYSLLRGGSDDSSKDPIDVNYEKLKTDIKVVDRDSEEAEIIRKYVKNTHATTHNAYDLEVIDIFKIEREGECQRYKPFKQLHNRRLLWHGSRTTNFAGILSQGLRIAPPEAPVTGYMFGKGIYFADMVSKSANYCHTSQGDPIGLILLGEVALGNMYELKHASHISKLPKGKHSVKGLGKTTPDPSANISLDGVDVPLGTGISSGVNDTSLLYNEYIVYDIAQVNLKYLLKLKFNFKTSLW
T1 sequence (Q9H2K2 934-1166): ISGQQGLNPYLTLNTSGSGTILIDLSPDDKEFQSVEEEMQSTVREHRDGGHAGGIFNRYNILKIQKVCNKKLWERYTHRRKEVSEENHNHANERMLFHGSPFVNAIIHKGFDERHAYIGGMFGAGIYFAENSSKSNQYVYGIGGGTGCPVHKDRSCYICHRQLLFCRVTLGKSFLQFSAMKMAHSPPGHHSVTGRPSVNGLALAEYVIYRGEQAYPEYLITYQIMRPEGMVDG
T3 sequence (O95271 1088-1327): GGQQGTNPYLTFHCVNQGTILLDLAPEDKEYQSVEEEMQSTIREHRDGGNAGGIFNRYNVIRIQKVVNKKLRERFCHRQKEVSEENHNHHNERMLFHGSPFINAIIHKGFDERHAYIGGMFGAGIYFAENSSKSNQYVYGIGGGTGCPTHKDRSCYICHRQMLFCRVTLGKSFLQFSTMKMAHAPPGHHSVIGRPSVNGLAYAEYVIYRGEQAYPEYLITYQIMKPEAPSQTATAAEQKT

Row | Structure (SMILES) | IC50 (tankyrase 2 (His6-TNKS2)) | IC50 [1] | IC50 (Tankyrase 1 (TNKS1))
1 | Cn1ccc2c(=O)[nH]c(-c3ccc(C(F)(F)F)cc3)nc21 [Example 38, 7-Methyl-2-(4-trifluoromethyl-phenyl)-3,7-dihydro-pyrrolo[2,3-d]pyrimidin-4-one] | 45 nM | 785 nM | 38 nM
2 | COc1ccc(-c2nc3c(ccn3C)c(=O)[nH]2)cc1 [Example 39, 2-(4-Methoxy-phenyl)-7-methyl-3,7-dihydro-pyrrolo[2,3-d]pyrimidin-4-one] | 58 nM | 854 nM | 54 nM
3 | CCOc1ccc(-c2nc3c(ccn3C)c(=O)[nH]2)cn1 [Example 40, 2-(6-Ethoxy-pyridin-3-yl)-7-methyl-3,7-dihydro-pyrrolo[2,3-d]pyrimidin-4-one] | 109 nM | 289 nM | 117 nM
4 | Cn1ccc2c(=O)[nH]c(-c3cccnc3)nc21 [Example 41, 7-Methyl-2-pyridin-3-yl-3,7-dihydro-pyrrolo[2,3-d]pyrimidin-4-one] | 568 nM | 307 nM | 764 nM
5 | Cc1ccc(-c2nc3c(ccn3C)c(=O)[nH]2)cn1 [Example 42, 7-Methyl-2-(6-methyl-pyridin-3-yl)-3,7-dihydro-pyrrolo[2,3-d]pyrimidin-4-one] | 235 nM | 166 nM | 228 nM
6 | Cn1ccc2c(=O)[nH]c(-c3ccc(C#N)cc3)nc21 [Example 43, 4-(7-Methyl-4-oxo-4,7-dihydro-3H-pyrrolo[2,3-d]pyrimidin-2-yl)-benzonitrile] | 143 nM | 1180 nM | 110 nM
7 | Cn1ccc2c(=O)[nH]c(-c3ccc(C(F)(F)F)nc3)nc21 [Example 44, 7-Methyl-2-(6-trifluoromethyl-pyridin-3-yl)-3,7-dihydro-pyrrolo[2,3-d]pyrimidin-4-one] | 84 nM | 93.3 nM | 88 nM
8 | Cn1ccc2c(=O)[nH]c(-c3ccc(C(F)(F)F)cc3)cc21 [Example 45, 1-Methyl-6-(4-trifluoromethyl-phenyl)-1,5-dihydro-pyrrolo[3,2-c]pyridin-4-one] | 39 nM | 842 nM | 40 nM
9 | CCn1ccc2c(=O)[nH]c(-c3ccc(C(F)(F)F)cc3)cc21 [Example 46, 1-Ethyl-6-(4-trifluoromethyl-phenyl)-1,5-dihydro-pyrrolo[3,2-c]pyridin-4-one] | 132 nM | > 50000 nM | 123 nM
10 | Cn1cc(-c2cc3c(ccn3C)c(=O)[nH]2)cn1 [Example 47, 1-Methyl-6-(1-methyl-1H-pyrazol-4-yl)-1,5-dihydro-pyrrolo[3,2-c]pyridin-4-one] | 135 nM | 292 nM | 164 nM
11 | Cn1ccc2c(=O)[nH]c(N3CCC(c4ccc(F)cc4)CC3)nc21 [Example 48, 2-[4-(4-Fluoro-phenyl)-piperidin-1-yl]-7-methyl-3,7-dihydro-pyrrolo[2,3-d]pyrimidin-4-one] | 43 nM | 4700 nM | 43 nM
12 | C=CCCn1ccc2c(=O)[nH]c(-c3ccc(C(F)(F)F)cc3)nc21 [Example 49, 7-But-3-enyl-2-(4-trifluoromethyl-phenyl)-3,7-dihydro-pyrrolo[2,3-d]pyrimidin-4-one] | 1360 nM | > 50000 nM | 1280 nM
13 | CCn1ccc2c(=O)[nH]c(-c3ccc(C(F)(F)F)cc3)nc21 [Example 50, 7-Ethyl-2-(4-trifluoromethyl-phenyl)-3,7-dihydro-pyrrolo[2,3-d]pyrimidin-4-one] | 163 nM | > 50000 nM | 176 nM
14 | CCCn1ccc2c(=O)[nH]c(-c3ccc(C(F)(F)F)cc3)nc21 [Example 51, 7-Propyl-2-(4-trifluoromethyl-phenyl)-3,7-dihydro-pyrrolo[2,3-d]pyrimidin-4-one] | 640 nM | > 50000 nM | 535 nM
15 | C=CCn1ccc2c(=O)[nH]c(-c3ccc(C(F)(F)F)cc3)nc21 [Example 52, 7-Allyl-2-(4-trifluoromethyl-phenyl)-3,7-dihydro-pyrrolo[2,3-d]pyrimidin-4-one] | 730 nM | > 50000 nM | 750 nM
16 | O=c1[nH]c(-c2ccc(C(F)(F)F)cc2)nc2c1ccn2CCC(O)CO (stereo not drawn) [Example 53, 7-(3,4-Dihydroxy-butyl)-2-(4-trifluoromethyl-phenyl)-3,7-dihydro-pyrrolo[2,3-d]pyrimidin-4-one] | 168 nM | 2380 nM | 240 nM

The remaining lines, values ahead:

Row | IC50 (tankyrase 2 (His6-TNKS2)) | IC50 [1] | IC50 (Tankyrase 1 (TNKS1)) | Structure (SMILES)
17 | 237 nM | 13500 nM | 425 nM | O=c1[nH]c(-c2ccc(C(F)(F)F)cc2)nc2c1ccn2CC(O)CO (stereo not drawn) [Example 54, 7-(2,3-Dihydroxy-propyl)-2-(4-trifluoromethyl-phenyl)-3,7-dihydro-pyrrolo[2,3-d]pyrimidin-4-one]
18 | 40 nM | 449 nM | 37 nM | CCNC(=O)c1ccc(N2CCN(c3nc4c(ccn4C)c(=O)[nH]3)CC2)cc1 [Example 55, N-Ethyl-4-[4-(7-methyl-4-oxo-4,7-dihydro-3H-pyrrolo[2,3-d]pyrimidin-2-yl)-piperazin-1-yl]-benzamide]
19 | 9160 nM | > 50000 nM | 7800 nM | Cn1ccc2c(=O)[nH]c(-n3cccn3)nc21 [Example 56, 7-Methyl-2-pyrazol-1-yl-3,7-dihydro-pyrrolo[2,3-d]pyrimidin-4-one]
20 | 65 nM | 1880 nM | 48 nM | O=c1[nH]c(-c2ccc(C(F)(F)F)cc2)nc2c1ccn2CO [Example 57, 7-Hydroxymethyl-2-(4-trifluoromethyl-phenyl)-3,7-dihydro-pyrrolo[2,3-d]pyrimidin-4-one]
21 | 100 nM | 1310 nM | 108 nM | Cn1ccc2c(=O)[nH]c(N3CC(C)(c4ccccc4)C3)nc21 [Example 58, 7-Methyl-2-(3-methyl-3-phenyl-azetidin-1-yl)-3,7-dihydro-pyrrolo[2,3-d]pyrimidin-4-one]
22 | 619 nM | > 50000 nM | 545 nM | O=c1[nH]c(-c2ccc(C(F)(F)F)cc2)nc2c1ccn2C1CC1 [Example 59, 7-Cyclopropyl-2-(4-trifluoromethyl-phenyl)-3,7-dihydro-pyrrolo[2,3-d]pyrimidin-4-one]
23 | 55 nM | 10600 nM | 33 nM | O=c1[nH]c(N2CCN(c3ccccc3F)CC2)nc2c1ccn2CO [Example 60, 2-[4-(2-Fluoro-phenyl)-piperazin-1-yl]-7-hydroxymethyl-3,7-dihydro-pyrrolo[2,3-d]pyrimidin-4-one]
24 | 28 nM | 14800 nM | 34 nM | O=c1[nH]c(N2CCN(c3c(F)cccc3F)CC2)nc2c1ccn2CC(O)CO (stereo not drawn) [Example 61, 2-(4-(2,6-difluorophenyl)piperazin-1-yl)-7-(2,3-dihydroxypropyl)-3H-pyrrolo[2,3-d]pyrimidin-4(7H)-one]
25 | 154 nM | 3920 nM | 117 nM | Cn1ccc2c(=O)[nH]c(-c3ccccc3)nc21 [Example 62, 7-Methyl-2-phenyl-3,7-dihydro-pyrrolo[2,3-d]pyrimidin-4-one]
